Key:
cholesterol absorption = experiment: in vivo cholesterol absorption study, serum radioactivity after oral [4-^14C] cholesterol; conditions: Rattus norvegicus, 6 h, normal rats, serum radioactivity at six hours; for ED50: read-out: ED50 (effective dose inhibiting fifty percent of the cholesterol absorption of the control animals)
Experimental: The in vivo cholesterol absorption studies were conducted in normal rats by oral administration of the compound being tested in propylene glycol and olive oil followed by oral administration of [4-^14 C] cholesterol in propylene glycol and olive oil, otherwise following the procedure of Cayen et al., J. Lipid Res. 20 162 (1979). The serum radioactivity was measured at six hours after dosing. The results of this study are reported in the following Table, where available, as percent decrease compared to control and in terms of the effective dose (ED50) inhibiting fifty-percent of the absorption of the control animals.

[1] = molecular target: T1, cholesterol esterase (EC 3.1.1.13) (Bos taurus, UniProt P30122); experiment: in vitro inhibition of cholesteryl ester formation by cholesterol esterase; format: biochemical, bovine; conditions: for IC50: 37° C., cholesterol and oleic acid, cholesterol esterase from bovine pancreas, read-out: IC50 (concentration that inhibits one-half of the ester formation)
T1 construct: purchased Sigma Chemical Company, St. Louis, Mo., USA C-1892; host or cells: bovine pancreas
T1 sequence (P30122 19-597): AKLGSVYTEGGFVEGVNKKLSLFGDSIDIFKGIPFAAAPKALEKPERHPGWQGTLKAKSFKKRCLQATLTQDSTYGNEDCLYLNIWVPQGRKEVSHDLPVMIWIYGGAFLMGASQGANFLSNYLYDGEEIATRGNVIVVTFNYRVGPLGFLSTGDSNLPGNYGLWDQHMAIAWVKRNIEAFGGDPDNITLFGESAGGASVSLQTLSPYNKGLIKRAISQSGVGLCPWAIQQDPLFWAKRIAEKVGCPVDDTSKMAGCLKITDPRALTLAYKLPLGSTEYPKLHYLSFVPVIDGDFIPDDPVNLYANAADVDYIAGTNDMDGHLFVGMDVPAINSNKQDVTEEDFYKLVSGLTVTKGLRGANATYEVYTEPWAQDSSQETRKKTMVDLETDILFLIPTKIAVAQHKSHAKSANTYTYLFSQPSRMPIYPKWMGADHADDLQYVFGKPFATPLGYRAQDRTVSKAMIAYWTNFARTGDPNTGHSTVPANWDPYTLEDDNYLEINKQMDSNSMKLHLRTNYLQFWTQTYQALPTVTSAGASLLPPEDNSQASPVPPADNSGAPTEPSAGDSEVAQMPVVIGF
Experimental: The ability of the compounds of this invention to inhibit the formation of cholesteryl esters and thereby interfere with and prevent assimilation of cholesterol into the lymphatic system and ultimately the blood stream was established by incubating the compounds at 37° C. with a mixture of cholesterol and oleic acid in the presence of buffered cholesterol esterase [(EC 3.1.1.13) Sigma Chemical Company, St. Louis, Mo., USA, No. C-1892, from bovine pancreas] and measuring the amount of ester formed, according to the procedure of Field, J. of Lipid Research, 25 389 (1984).

[2] = vs control, read-out: Decrease in [^14C] Cholesterol Absorption

| SMILES | IC50 [1] [µM] | other results |
| --- | --- | --- |
| CCCCNC(=O)Oc1ccc(Oc2ccc([N+](=O)[O-])cc2)cc1 [Example 20, Butylcarbamic acid 4-(4-nitrophenoxy)phenyl ester] | 7.6 | inhibition in vivo at 65 mg/kg (cholesterol absorption; [2]): 27% |
| CCCCNC(=O)Oc1ccc(Oc2ccccc2)cc1C(=O)OC [Example 50] | 5.1 | – |
| CCOC(=O)C1CCN(C(=O)Oc2ccc(Oc3ccccc3)cc2)CC1 [Example 43, 1,4-Piperidinedicarboxylic acid 4-ethyl-1-(4phenoxyphenyl) diester] | 4.5 | inhibition in vivo at 50 mg/kg (cholesterol absorption; [2]): 60% |
| CC1(C)CCN(C(=O)Oc2ccc(Oc3ccccc3)cc2)CC1 [Example 38, 4,4-Dimethyl-1piperidinecarboxylic acid 4-phenoxyphenol ester] | 0.23 | inhibition in vivo at 50 mg/kg (cholesterol absorption; [2]): 86% |
| COC(=O)c1cc(Oc2ccccc2)ccc1OC(=O)N1CCC(C)CC1 [Example 49, 4-Methyl-1-piperidinecarboxylic acid 2-(methoxycarbonyl)-4-phenoxyphenyl ester] | 0.34 | inhibition in vivo at 50 mg/kg (cholesterol absorption; [2]): 28% |
| CC(C)C1CCN(C(=O)Oc2ccc(Oc3ccccc3)cc2)CC1 [Example 51, 4-(1-Methylethyl)-1-piperidinecarboxylic acid 4-phenoxyphenyl ester] | 0.25 | inhibition in vivo at 20 mg/kg (cholesterol absorption; 20 mg/kg, vs control, read-out: Decrease in [^14C] Cholesterol Absorption): 66% |
| CC(=O)OC1CCN(C(=O)Oc2ccc(Oc3ccccc3)cc2)CC1 [Example 48, 4-(Acetyloxy)-1-piperidinecarboxylic acid 4-phenoxyphenyl ester] | 0.54 | inhibition in vivo at 50 mg/kg (cholesterol absorption; [2]): 41% |
| CCCCNC(=O)Oc1c(C)cc(Oc2ccc(C)cc2)cc1C [Example 22, Butylcarbamic acid 2,6-dimethyl-4-(4-methylphenoxy)phenyl ester] | – | inhibition at 30 µM ([1]; at 30 μM): 20% |
| CCCCCCCC/C=C\CCCCCCCCNC(=O)Oc1ccc(Oc2ccccc2)cc1 [Example 67, (Z)-9-Octadecenylcarbamic acid 4-phenoxyphenyl ester] | 626 | inhibition in vivo at 100 mg/kg (cholesterol absorption; [2]): 49% |
| CC1CCCN(C(=O)Oc2ccc(Oc3ccccc3)cc2)C1 (centres unmarked) [Example 39, 3-Methyl-1-piperidinecarboxylic acid 4-phenoxyphenyl ester] | 0.88 | inhibition in vivo at 50 mg/kg (cholesterol absorption; [2]): 73% |
| CCCCCCCCCCCCOC(=O)C1CCN(C(=O)Oc2ccc(Oc3ccccc3)cc2)CC1 [Example 53, 1,4-Piperidinedicarboxylic acid 4-dodecyl 1-(4-phenoxyphenyl) diester] | > 100 | inhibition in vivo at 100 mg/kg (cholesterol absorption; [2]): 44% |
| CCCCNC(=O)Oc1ccc(Oc2ccc(Cl)cc2)cc1 [Example 21, Butylcarbamic acid 4-(4-chlorophenoxy)phenyl ester] | 6.1 | – |
| CC1CCN(C(=O)Oc2ccc(Oc3ccccc3)cc2C#N)CC1 [Example 54, 4-Methyl-1-piperidinecarboxylic acid 2-cyano-4-phenoxyphenyl ester] | 0.44 | inhibition in vivo at 50 mg/kg (cholesterol absorption; [2]): 36% |
| CC(C)(C)CC(C)(C)NC(=O)Oc1ccc(Oc2ccccc2)cc1 [Example 16, (1,1,3,3-Tetramethylbutyl)carbamic acid 4-phenoxyphenyl ester] | > 100 | – |
| CC1CCCCN1C(=O)Oc1ccc(Oc2ccccc2)cc1 (centres unmarked) [Example 63, 2-Methyl-1-piperidinecarboxylic acid 4-phenoxyphenyl ester] | > 100 | inhibition in vivo at 50 mg/kg (cholesterol absorption; [2]): 68% |
| O=C(Oc1ccc(Oc2ccccc2)cc1)N1CCCCC1 [Example 2, 1-Piperidinecarboxylic acid 4-phenoxyphenyl ester] | 0.13 | inhibition in vivo at 100 mg/kg (cholesterol absorption; [2]): 82%; ED50 (cholesterol absorption): 24 mg/kg |
| O=C(Oc1ccc(Oc2ccccc2)cc1)N1CCSCC1 [Example 10, 4-Thiomorpholinecarboxylic acid 4-phenoxyphenyl ester] | 1.1 | inhibition in vivo at 65 mg/kg (cholesterol absorption; [2]): 74%; ED50 (cholesterol absorption): 14 mg/kg |
| CCCCCCCCCCCCOC(=O)c1cc(Oc2ccccc2)ccc1OC(=O)N1CCC(C)CC1 [Example 58, 4-Methyl-1-piperidinecarboxylic acid 2-(dodecycloxycarbonyl)-4-phenoxyphenyl ester] | 0.34 | inhibition in vivo at 50 mg/kg (cholesterol absorption; [2]): 37% |
| O=C(NCC1CCCCC1)Oc1ccc(Oc2ccccc2)cc1 [Example 14, Cyclohexylmethylcarbamic acid 4phenoxyphenyl ester] | 9.3 | – |
| CN1CCN(C(=O)Oc2ccc(Oc3ccccc3)cc2)CC1 [Example 9, 4-Methyl-1-piperazinecarboxylic acid 4-phenoxyphenyl ester] | > 100 | inhibition in vivo at 100 mg/kg (cholesterol absorption; [2]): 40% |
| O=C(Oc1ccc(Oc2ccccc2)cc1)N1CCC(CO)CC1 [Example 56, 4-(Hydroxymethyl)-1-piperidinecarboxylic acid 4-phenoxyphenyl ester] | 2.1 | – |
| CCCCC(CC)NC(=O)Oc1ccc(Oc2ccccc2)cc1 (centres unmarked) [Example 17, (1-Ethylpentyl)carbamic acid 4-phenoxyphenyl ester] | 13.3 | – |

| SMILES | IC50 [1] [µM] | other results |
| --- | --- | --- |
| O=C(Oc1ccc(Oc2ccccc2)cc1)N1CCC(O)CC1 [Example 44, 4-Hydroxy1-piperidinecarboxylic acid 4-phenoxyphenyl ester] | 1.9 | inhibition in vivo at 50 mg/kg (cholesterol absorption; [2]): 49% |
| CC(C)CCCC(C)NC(=O)Oc1ccc(Oc2ccccc2)cc1F (centres unmarked) [Example 37, (1,5-Dimethylhexyl)carbamic acid 2-fluoro-4-phenoxyphenyl ester] | 1.4 | – |
| O=C(Oc1ccc(Oc2ccccc2)cc1)N1CCC(CI)CC1 [Example 59, 4-(Iodomethyl)-1-piperidinecarboxylic acid 4-phenoxyphenyl ester] | 0.27 | – |
| O=C(NC1CCCCC1)Oc1ccc(Oc2ccccc2)cc1 [Example 13, Cyclohexylcarbamic acid 4-phenoxyphenyl ester] | 6.7 | – |
| O=C(Oc1ccc(Oc2ccccc2)cc1)N1CCCCCC1 [Example 40, Hexahydro-1H-azepine-1-carboxylic acid 4-phenoxyphenyl ester] | 19 | – |
| CCCCCCCCNC(=O)Oc1ccc(Oc2ccccc2)cc1 [Example 11, Octylcarbamic acid 4phenoxyphenyl ester] | 20 | – |
| CC(C)CC(C)NC(=O)Oc1ccc(Oc2ccccc2)cc1 (centres unmarked) [Example 18, (1,3-Dimethylbutyl)carbamic acid 4phenoxyphenyl ester] | 16.5 | – |
| CCCCNC(=O)Oc1ccc(Oc2ccccc2)cc1F [Example 28, Butylcarbamic acid 2-fluoro-4-phenoxyphenyl ester] | 1.9 | – |
| COc1ccc(Oc2ccc(OC(=O)NC(C)CCCC(C)C)cc2)cc1 (centres unmarked) [Example 31, (1,5-Dimethylhexyl)carbamic acid 4-(4-methoxyphenoxy)phenyl ester] | 26 | – |
| CCCCNC(=O)Oc1ccc(Oc2ccc(OC)cc2)cc1 [Example 29, Butylcarbamic acid 4-(4-methoxyphenoxy)phenyl ester] | 13 | – |
| O=C(Oc1ccc(Oc2ccccc2)cc1)N1CCN(c2ccccc2)CC1 [Example 6, 4-Phenyl-1-piperazinecarboxylic acid 4-phenoxyphenyl ester] | 55 | – |
| CC1CCN(C(=O)Oc2ccc(Oc3ccccc3)cc2)CC1 [Example 8, 4-Methyl-1-piperidinecarboxylic acid 4-phenoxyphenyl ester] | – | inhibition in vivo at 65 mg/kg (cholesterol absorption; [2]): 90%; ED50 (cholesterol absorption): 10 mg/kg |
| CCCCNC(=O)Oc1ccc(Oc2ccc(C)cc2)cc1 [Example 19, Butylcarbamic acid 4-(4-methylphenoxy)phenyl ester] | 5.4 | – |
| CCCCCCN(CCCCCC)CC1CCN(C(=O)Oc2ccc(Oc3ccccc3)cc2)CC1 [Example 62, 4-(Dihexylaminomethyl)-1-piperidinecarboxylic acid 4-phenoxyphenyl ester] | 15 | – |
| O=C(Oc1ccc(Oc2ccccc2)cc1)N1CCC(c2ccccc2)CC1 [Example 5, 4-Phenyl1-piperidinecarboxylic acid 4-phenoxyphenl ester] | 33 | – |
| CCCCNC(=O)Oc1ccc(Oc2ccc(C(C)(C)C)cc2)cc1 [Example 32, Butylcarbamic acid 4-[4-(1,1-dimethylethyl)phenoxy]phenyl ester] | > 100 | – |
| CC(C)CCCC(C)NC(=O)Oc1ccc(Oc2ccc(Cl)cc2)cc1 (centres unmarked) [Example 27, (1,5-Dimethylhexyl)carbamic acid 4-(4-chlorophenoxy)phenyl ester] | 7.1 | – |
| O=C(Oc1ccc(Oc2ccccc2)cc1)N1CCOCC1 [Example 7, 4-Morpholinecarboxylic acid 4-phenoxyphenol ester] | 85 | – |
| CCCCCCNC(=O)Oc1ccc(Oc2ccccc2)cc1 [Example 36, Hexylcarbamic acid 4-phenoxyphenyl ester] | 1.7 | – |
| CCCCCC(C)NC(=O)Oc1ccc(Oc2ccccc2)cc1 (centres unmarked) [Example 26] | 2.9 | – |
| Cc1ccc(Oc2ccc(OC(=O)NC(C)CCCC(C)C)cc2)cc1 (centres unmarked) [Example 24, (1,5-Dimethylhexyl)carbamic acid 4-(4-methylphenoxy)phenyl ester] | 5.6 | – |

Reference: US5391571A, “Cholesterol ester hydrolase inhibitors” (priority 1993, dated 1995)
